Values after ≈ are worked out from the molar mass of the structure shown. Read-outs that look alike come from different tables or passages of the source.
How the values were obtained:
[1] = test system: Larvae of An. sinensis; set-up: method as in PMID 26085316; settings: An. sinensis larvae compared with Ae. aegypti larvae; cited from earlier work
[2] = test system: third-instar larvae of insecticide-resistant Anopheles sinensis; assay: contact mortality bioassay, 24 h exposure; type: in vivo
Experimental: (§1) A contact mortality bioassay[25] was used to evaluate the toxicity of all compounds against third-instar larvae of the four mosquito species. Each test compound in methanol was suspended in DW with Triton X-100 (20 µL/L). Groups of 20 mosquito larvae were separately placed into paper cups (270 mL) containing each compound solution (250 mL). […] Negative controls consisted of a methanol–Triton X-100 solution in DW.
(§2) Treated and control (methanol–Triton X-100 solution only) larvae were maintained under the same conditions as those used for colony maintenance without providing food. Larval mortalities were determined 24 h post-treatment. […] All treatments were performed three times using 20 larvae per replicate.
(§3) The concentration of the test compounds required to produce 50% AChE inhibitory activity (IC50) was determined using the SAS 9.13 program (Cary: SAS Institute; 2014). Concentration-mortality data were subjected to probit analysis using the SAS 9.13 program. […] Statistical analyses were performed using the SAS 9.13 program. Multiple linear regression and correlation analysis were performed using the SPSS 24 program (Armonk: IBM Corp.; 2016).

[3] = test system: third-instar larvae of insecticide-susceptible Aedes aegypti; assay: contact mortality bioassay, 24 h exposure; type: in vivo; settings: 24 h exposure; for LC50: Aedes aegypti, 24 h
Experimental: as §1, §2, §3

[4] = test system: third-instar larvae of insecticide-susceptible Aedes albopictus; assay: contact mortality bioassay, 24 h exposure; type: in vivo
Experimental: as §1, §2, §3

[5] = test system: third-instar larvae of insecticide-susceptible Culex pipiens pallens; assay: contact mortality bioassay, 24 h exposure; type: in vivo; settings: 24 h exposure; for LC50: Culex pipiens, 24 h
Experimental: as §1, §2, §3

[6] = test system: larval Ae. aegypti; set-up: method as in PMID 23676010; settings: cited from earlier work
[7] = test system: AaAQP4; set-up: method as in PMID 24260359; settings: larval Ae. aegypti anal gills; cited from earlier work
[8] = test system: AaV-type H^+-ATPase; set-up: method as in PMID 24260359; settings: larval Ae. aegypti; cited from earlier work
[9] = target: acetylcholinesterase (AChE) from third-instar Ae. aegypti larvae (Aedes aegypti, UniProt A4GND7); assay: acetylcholinesterase inhibition assay; type: biochemical; settings: based on IC50 values
Chain of acetylcholinesterase (AChE) from third-instar Ae. aegypti larvae (A4GND7 37-679): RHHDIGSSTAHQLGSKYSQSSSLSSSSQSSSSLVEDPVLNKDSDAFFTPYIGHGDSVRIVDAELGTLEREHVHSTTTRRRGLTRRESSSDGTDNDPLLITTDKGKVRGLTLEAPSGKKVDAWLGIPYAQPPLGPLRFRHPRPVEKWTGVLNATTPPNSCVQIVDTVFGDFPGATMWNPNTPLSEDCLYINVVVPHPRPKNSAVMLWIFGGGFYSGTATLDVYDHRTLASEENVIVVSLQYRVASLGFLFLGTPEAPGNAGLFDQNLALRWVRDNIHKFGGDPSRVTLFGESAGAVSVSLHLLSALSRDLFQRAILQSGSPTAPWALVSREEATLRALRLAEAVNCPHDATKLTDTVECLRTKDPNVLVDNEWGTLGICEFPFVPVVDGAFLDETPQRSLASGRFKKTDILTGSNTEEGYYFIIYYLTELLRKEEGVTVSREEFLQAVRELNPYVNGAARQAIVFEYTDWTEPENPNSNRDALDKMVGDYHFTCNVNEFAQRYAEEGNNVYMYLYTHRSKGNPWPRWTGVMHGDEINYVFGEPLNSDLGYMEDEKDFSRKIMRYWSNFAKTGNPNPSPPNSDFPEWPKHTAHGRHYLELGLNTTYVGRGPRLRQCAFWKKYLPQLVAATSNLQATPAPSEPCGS
Experimental: The in vitro AChE inhibitory activity of the test compounds was assessed according to the method of Perumalsamy et al.[42]. Third-instar Ae. aegypti larvae were used in all experiments. Whole bodies of 50 larvae were homogenized in 1 mL of ice-cold 0.1 M phosphate buffer (pH 8.0) using a glass tissue homogenizer. After filtering through cheesecloth, the homogenate was centrifuged at 1,000 × g at 4 °C for 5 min. The supernatant was used directly as the enzyme source for AChE. The protein levels were determined using the Bradford Protein Assay Kit (Bio-Rad Laboratories, Hercules, CA, USA) using BSA as the standard. The reaction mixture consisted of 50 µL of the crude enzyme preparation (4.3–4.8 µg protein equivalents), 150 µL of 0.1 M phosphate buffer, 20 µL of 3 mM DTNB in phosphate buffer (pH 7.0), and 1 µL of various concentrations of each test compound in ethanol. The reaction mixture was incubated at 30 °C for 5 min, and 20 µL of 32 mM ATChI was then added to the mixture. After incubation for 30 min, the reaction was terminated by adding 20 µL of 5 mM eserine salicylate. Absorbance was recorded at 412 nm using a VersaMax microplate reader (Molecular Devices, Sunnyvale, CA, USA). […] The results are expressed as the means ± standard errors (SEs) of triplicate samples from three independent experiments.
as §3

COP(=S)(OC)Oc1ccc(SC)c(C)c1 [fenthion]
relative susceptibility ratio (RSR) [1]: 11

CC1(C)[C@H](C(=O)O[C@H](C#N)c2cccc(Oc3ccccc3)c2)[C@@H]1C=C(Br)Br [deltamethrin]
relative susceptibility ratio (RSR) [1]: 611

COP(=S)(OC)Oc1ccc(Sc2ccc(OP(=S)(OC)OC)cc2)cc1 [Temephos, temephos, reference compound]
LC50 ([2]; Anopheles sinensis, 24 h, read-out: LC50 (mg/L) (95% CI)): 0.4 mg/L (≈ 0.857 µM)
LC90 (mg/L) (95% CI) ([2]; Table 5, larvae resistant to deltamethrin and temephos, 24 h exposure): 1.39 (1.05–2.13) mg/L
Slope ± SE ([2]; probit slope, Table 5, larvae resistant to deltamethrin and temephos, 24 h exposure): 2.2 ± 0.15
LC50 ([3]; read-out: LC50 (mg/L) (95% CI), Table 3): 0.0125 mg/L (≈ 0.0268 µM)
LC90 (mg/L) (95% CI) ([3]; Table 3): 0.0658 (0.0479–0.1059) mg/L
LC50 ([4]; Aedes albopictus, 24 h, read-out: LC50 (mg/L) (95% CI)): 0.0132 mg/L (≈ 0.0283 µM)
LC90 (mg/L) (95% CI) ([4]; Table 4, 24 h exposure): 0.0778 (0.0547–0.1343) mg/L
Slope ± SE ([4]; probit slope, Table 4, 24 h exposure): 1.6 ± 0.21
LC50 ([5]; read-out: LC50 (mg/L) (95% CI), Table 2, KS-CP strain): 0.0162 mg/L (≈ 0.0347 µM)
LC90 (mg/L) (95% CI) ([5]; Table 2, KS-CP strain): 0.0749 (0.0551–0.1177) mg/L
relative susceptibility ratio (RSR) [1]: 29

Cc1ccc(C(C)C)cc1O [carvacrol]
LC50 [6]: 69 µg/mL (≈ 459 µM)

CCCCC/C=C/C=C/C(=O)NCC(C)C [pellitorine]
AaAQP4 expression levels [7]: inhibited the AaAQP4 expression levels
expression levels of the gene encoding AaV-type H^+-ATPase [8]: slight decreases

Oc1ccccc1 [Phenol]
LC50 ([3]; Table 7, structure-activity series, read-out: LC50 (mg/L) (95% CI)): 43.2 mg/L (≈ 459 µM)
LC90 (mg/L) (95% CI) ([3]; Table 7, structure-activity series): 207.1 (145.1–363.6) mg/L
LC50 ([5]; Table 6, structure-activity series, read-out: LC50 (mg/L) (95% CI)): 41.7 mg/L (≈ 443 µM)
LC90 (mg/L) (95% CI) ([5]; Table 6, structure-activity series): 185.1 (133.5–306.6) mg/L
AChE inhibitory activity (in words) [9]: lowest of all of the compounds that were examined
LC50 [6]: 194 µg/mL (≈ 2060 µM)

— paper PMC6344527, “Toxicity and possible mechanisms of action of honokiol from Magnolia denudata seeds against four mosquito species” (Scientific Reports, 2019)
